The term IC50 denotes the point on the concentration scale where inhibition reaches its midpoint.

A value given as a limit tells only on which side of the number the result lay.

METTL3/METTL14, sequence (Q86U44 whole entry, species assumed): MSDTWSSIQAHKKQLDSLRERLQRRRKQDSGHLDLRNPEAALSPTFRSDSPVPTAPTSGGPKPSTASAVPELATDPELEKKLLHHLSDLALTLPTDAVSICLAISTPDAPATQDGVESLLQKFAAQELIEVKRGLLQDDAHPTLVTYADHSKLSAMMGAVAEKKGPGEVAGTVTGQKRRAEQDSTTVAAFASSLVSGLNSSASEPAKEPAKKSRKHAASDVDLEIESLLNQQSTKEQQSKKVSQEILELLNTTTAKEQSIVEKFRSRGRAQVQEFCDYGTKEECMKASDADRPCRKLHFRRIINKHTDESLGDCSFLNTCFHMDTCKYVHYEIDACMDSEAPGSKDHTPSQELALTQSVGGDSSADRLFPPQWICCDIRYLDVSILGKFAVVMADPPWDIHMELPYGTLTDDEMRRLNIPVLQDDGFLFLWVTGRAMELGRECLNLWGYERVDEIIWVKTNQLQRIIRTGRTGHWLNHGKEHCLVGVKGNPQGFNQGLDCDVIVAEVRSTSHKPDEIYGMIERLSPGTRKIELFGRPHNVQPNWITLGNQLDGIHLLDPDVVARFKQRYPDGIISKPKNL
METTL3/METTL14, sequence (Q9HCE5 whole entry partner, species assumed): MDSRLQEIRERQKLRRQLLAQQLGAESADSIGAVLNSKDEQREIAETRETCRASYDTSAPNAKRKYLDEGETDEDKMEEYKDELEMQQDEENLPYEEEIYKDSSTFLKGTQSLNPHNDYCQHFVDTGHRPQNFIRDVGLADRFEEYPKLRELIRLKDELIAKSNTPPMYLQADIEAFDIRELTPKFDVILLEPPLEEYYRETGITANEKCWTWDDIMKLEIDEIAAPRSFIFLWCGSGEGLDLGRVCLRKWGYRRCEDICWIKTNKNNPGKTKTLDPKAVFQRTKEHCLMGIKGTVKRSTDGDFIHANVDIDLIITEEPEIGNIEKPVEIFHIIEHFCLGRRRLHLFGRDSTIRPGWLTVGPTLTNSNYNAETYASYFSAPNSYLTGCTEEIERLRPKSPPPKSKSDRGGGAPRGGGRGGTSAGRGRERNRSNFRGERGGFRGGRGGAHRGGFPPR

The target in one assay is METTL3/METTL14 (Homo sapiens, UniProt Q86U44). The assay can be described thus: METTL3-14 standard enzyme assay (3H-SAM flashplate). The settings on record: Table 3; METTL3 biochemical assay. As to the method:
METTL3-14 Standard Enzyme Assay
Assays were performed in a 25 μl-volume in 384-well V-bottom polypropylene microplates (Greiner Bio-One, cat. No. 781280) at ambient temperature. Optimized 1× assay buffer was 20 mM HEPES pH 7.5, 50 mM KCl, 250 μM MgCl2, 1 mM DTT, 0.01% Tween, 0.01% BSG, 0.004 U/μl RNAseOUT (cat. No. 10777019, ThermoFisher Scientific, Waltham, MA). For compound screening METTL3/METTL14 (final concentration, f.c.=2.5 nM) was added using a Multidrop Combi (ThermoFisher Scientific, Waltham, MA) and preincubated for 5 min. Reactions were started by adding 3′ biotinylated RNA (UCUGGACUAAA-biotin) (f.c.=100 nM) and 3H-SAM (f.c.=100 nM) substrates. Reactions proceeded for 30 minutes and were quenched with excess non-radioactive SAM (f.c.=15 μM). The reactions were then transferred to streptavidin-coated flashplates and incubated for 2 hours at 25° C. Following two washing cycles with 0.1% Tween-20, the plates were sealed and read on a TopCount (PerkinElmer, Waltham, MA) plate-based scintillation counter. For determination of kinetic parameters, reaction times were optimized so that measurements were taken during the initial velocity phase of the reaction.
In the case of `Nc1ncnc2c1c(-n1cccn1)cn2[C@H]1C[C@H](O)[C@@H](C(=O)Nc2cc(NC3CCC3)ccn2)O1` [Compound I-17, (2S,3S,5R)-5-[4-amino-5-(1H-pyrazol-1-yl)-7H-pyrrolo[2,3-d]pyrimidin-7-yl]-N-[4-(cyclobutylamino)pyridin-2-yl]-3-hydroxyoxolane-2-carboxamide], the IC50 was at least 1000 nM. `Nc1ncnc2c1c(-n1cccn1)cn2[C@@H]1C[C@H](C(=O)Nc2ccc3ccc(N4CCC4)nc3c2)[C@@H](O)C1` [Compound I-14] registered an IC50 of 10 to 100 nM.

Take `Nc1ncnc2c1c(-n1cccn1)cn2[C@H]1C[C@H](O)[C@@H](C(=O)Nc2ccc3ccc(NC4CCC4)nc3c2)O1` [Compound I-16]: the IC50 was under 10 nM.

Staying with this assay, now noted: Table 4; METTL3 biochemical assay.
For the compound `Cc1noc(NC(=O)[C@H]2O[C@@H](n3cc(-c4ccn(C)n4)c4c(N)ncnc43)[C@H](O)[C@@H]2O)c1C` [Compound I-75], the IC50 is at least 1000 nM. `Cn1ccc(-c2cn([C@@H]3O[C@H](C(=O)N4CCc5ccccc54)[C@@H](O)[C@H]3O)c3ncnc(N)c23)n1` [Compound I-99]: the IC50 lay within 100 to 1000 nM.

Compound `CN1CCN(c2ccc(NC(=O)[C@H]3O[C@@H](n4cc(-c5ccn(C)n5)c5c(N)ncnc54)[C@H](O)[C@@H]3O)nc2)CC1` [Compound I-127] displayed an IC50 of 100 to 1000 nM. `Cn1ccc(-c2cn([C@@H]3O[C@H](C(=O)Nc4nccc5ccccc45)[C@@H](O)[C@H]3O)c3ncnc(N)c23)n1` [Compound I-78] came in with an IC50 of at least 1000 nM. Compound `Cn1ccc(-c2cn([C@@H]3O[C@H](C(=O)Nc4ccc(OC(F)F)cc4)[C@@H](O)[C@H]3O)c3ncnc(N)c23)n1` [Compound I-132] showed a concentration for half-maximal inhibition (IC50) of 100 to 1000 nM. For the compound `CCc1cccc(NC(=O)[C@H]2O[C@@H](n3cc(-c4ccn(C)n4)c4c(N)ncnc43)[C@H](O)[C@@H]2O)n1` [Compound I-85], the IC50 was at least 1000 nM.

In turn, `Cn1ccc(-c2cn([C@@H]3O[C@H](C(=O)NCc4ccc(OC(F)(F)F)cc4)[C@@H](O)[C@H]3O)c3ncnc(N)c23)n1` [Compound I-84] displayed an IC50 of at least 1000 nM. Still for that read-out and setting: the figure for `COc1ccccc1CNC(=O)[C@H]1O[C@@H](n2cc(-c3ccn(C)n3)c3c(N)ncnc32)[C@H](O)[C@@H]1O` [Compound I-97] is 100 to 1000 nM; for `Cn1ccc(-c2cn([C@@H]3O[C@H](C(=O)NCCCN4CCCC4=O)[C@@H](O)[C@H]3O)c3ncnc(N)c23)n1` [Compound I-129] it is 100 to 1000 nM; for `Cc1cc(F)ccc1NC(=O)[C@H]1O[C@@H](n2cc(-c3ccn(C)n3)c3c(N)ncnc32)[C@H](O)[C@@H]1O` [Compound I-117] it is 100 to 1000 nM. For `Cn1ccc(-c2cn([C@@H]3O[C@H](C(=O)Nc4cccc5nsnc45)[C@@H](O)[C@H]3O)c3ncnc(N)c23)n1` [Compound I-118], the IC50 lay in the range of 100 to 1000 nM. The compound `Cn1ccc(-c2cn([C@@H]3O[C@H](C(=O)Nc4ccc(OCCN5CCOCC5)cc4)[C@@H](O)[C@H]3O)c3ncnc(N)c23)n1` [Compound I-139] showed an IC50 of 100 to 1000 nM. In turn, `CC(O)CNC(=O)[C@H]1O[C@@H](n2cc(-c3ccn(C)n3)c3c(N)ncnc32)[C@H](O)[C@@H]1O` (stereo partly shown) [Compound I-81] registered an IC50 of at least 1000 nM. Regarding `Cn1ccc(-c2cn([C@@H]3O[C@H](C(=O)Nc4cc(Cl)cc(Cl)c4)[C@@H](O)[C@H]3O)c3ncnc(N)c23)n1` [Compound I-67], the IC50 is at least 1000 nM. With `Cn1ccc(-c2cn([C@@H]3O[C@H](C(=O)Nc4ccc(S(=O)(=O)N5CCOCC5)cc4)[C@@H](O)[C@H]3O)c3ncnc(N)c23)n1` [Compound I-107], the IC50 was 100 to 1000 nM. `Cc1cc(CNC(=O)[C@H]2O[C@@H](n3cc(-c4ccn(C)n4)c4c(N)ncnc43)[C@H](O)[C@@H]2O)ccc1F` [Compound I-77] gave a 50% inhibitory concentration (IC50) of at least 1000 nM.

In turn, `Cn1ccc(-c2cn([C@@H]3O[C@H](C(=O)N[C@H](CO)c4ccccc4)[C@@H](O)[C@H]3O)c3ncnc(N)c23)n1` [Compound I-87] yielded an IC50 of at least 1000 nM. With `Cn1cc(NC(=O)[C@H]2O[C@@H](n3cc(-c4ccn(C)n4)c4c(N)ncnc43)[C@H](O)[C@@H]2O)cn1` [Compound I-104], the IC50 was in the range of 100 to 1000 nM. `Cn1ccc(-c2cn([C@@H]3O[C@H](C(=O)NCCc4ccc(C(F)(F)F)cc4)[C@@H](O)[C@H]3O)c3ncnc(N)c23)n1` [Compound I-108] returned a 50% inhibitory concentration (IC50) of 100 to 1000 nM. Regarding `Cn1ccc(-c2cn([C@@H]3O[C@H](C(=O)Nc4cnccn4)[C@@H](O)[C@H]3O)c3ncnc(N)c23)n1` [Compound I-91], the IC50 is at least 1000 nM. In turn, `Cn1ccc(-c2cn([C@@H]3O[C@H](C(=O)Nc4ccc5c(c4)OCCCO5)[C@@H](O)[C@H]3O)c3ncnc(N)c23)n1` [Compound I-124] had an IC50 of 100 to 1000 nM. `Cn1ccc(-c2cn([C@@H]3O[C@H](C(=O)Nc4cccc5cnccc45)[C@@H](O)[C@H]3O)c3ncnc(N)c23)n1` [Compound I-69] registered a half-inhibitory concentration (IC50) of at least 1000 nM. Same read-out and setting: in the case of `Cc1cc(C#N)ccc1NC(=O)[C@H]1O[C@@H](n2cc(-c3ccn(C)n3)c3c(N)ncnc32)[C@H](O)[C@@H]1O` [Compound I-113] it was 100 to 1000 nM; in that of `Cn1ccc(-c2cn([C@@H]3O[C@H](C(=O)Nc4ccc5nsnc5c4)[C@@H](O)[C@H]3O)c3ncnc(N)c23)n1` [Compound I-94], 100 to 1000 nM. The compound `COc1ccc(NC(=O)[C@H]2O[C@@H](n3cc(-c4ccn(C)n4)c4c(N)ncnc43)[C@H](O)[C@@H]2O)cc1Cl` [Compound I-140] showed an IC50 of 10 to 100 nM. In turn, `Cn1ccc(-c2cn([C@@H]3O[C@H](C(=O)Nc4ccc5c(c4)NC(=O)CC5)[C@@H](O)[C@H]3O)c3ncnc(N)c23)n1` [Compound I-123] yielded an IC50 of 100 to 1000 nM. `Cn1ccc(-c2cn([C@@H]3O[C@H](C(=O)Nc4cccc(C(F)(F)F)c4)[C@@H](O)[C@H]3O)c3ncnc(N)c23)n1` [Compound I-76] registered a concentration for half-maximal inhibition (IC50) of at least 1000 nM. With `Cn1ccc(-c2cn([C@@H]3O[C@H](C(=O)NCCc4ccc(Cl)cc4)[C@@H](O)[C@H]3O)c3ncnc(N)c23)n1` [Compound I-111], the half-inhibitory concentration (IC50) was 100 to 1000 nM. Regarding `Cc1ccc(C(N)=O)cc1NC(=O)[C@H]1O[C@@H](n2cc(-c3ccn(C)n3)c3c(N)ncnc32)[C@H](O)[C@@H]1O` [Compound I-92], the concentration for half-maximal inhibition (IC50) is at least 1000 nM. On the same count and under the same terms, in the case of `Cn1ccc(-c2cn([C@@H]3O[C@H](C(=O)NCCc4ccc(-c5ccccc5)cc4)[C@@H](O)[C@H]3O)c3ncnc(N)c23)n1` [Compound I-116] it was 100 to 1000 nM. Compound `CC(C)OCCNC(=O)[C@H]1O[C@@H](n2cc(-c3ccn(C)n3)c3c(N)ncnc32)[C@H](O)[C@@H]1O` [Compound I-73] registered an IC50 of at least 1000 nM. In turn, `CNC(=O)c1ccc(NC(=O)[C@H]2O[C@@H](n3cc(-c4ccn(C)n4)c4c(N)ncnc43)[C@H](O)[C@@H]2O)cc1` [Compound I-136] had an IC50 of 100 to 1000 nM. With `Cn1ccc(-c2cn([C@@H]3O[C@H](C(=O)N[C@@H](CO)c4ccccc4)[C@@H](O)[C@H]3O)c3ncnc(N)c23)n1` [Compound I-88], the 50% inhibitory concentration (IC50) is at least 1000 nM. On the same count and under the same terms, in the case of `COc1ccccc1[C@H](C)NC(=O)[C@H]1O[C@@H](n2cc(-c3ccn(C)n3)c3c(N)ncnc32)[C@H](O)[C@@H]1O` [Compound I-119] it was 100 to 1000 nM.

Take `Cn1ccc(-c2cn([C@@H]3O[C@H](C(=O)Nc4ccnn4C)[C@@H](O)[C@H]3O)c3ncnc(N)c23)n1` [Compound I-109]: the IC50 was in the range of 100 to 1000 nM. In turn, `COCC(C)NC(=O)[C@H]1O[C@@H](n2cc(-c3ccn(C)n3)c3c(N)ncnc32)[C@H](O)[C@@H]1O` (stereo partly shown) [Compound I-80] gave a 50% inhibitory concentration (IC50) of at least 1000 nM.

`Cc1cccnc1NC(=O)[C@H]1O[C@@H](n2cc(-c3ccn(C)n3)c3c(N)ncnc32)[C@H](O)[C@@H]1O` [Compound I-93] yielded a concentration for half-maximal inhibition (IC50) of at least 1000 nM. The compound `Cn1ccc(-c2cn([C@@H]3O[C@H](C(=O)Nc4ccc5ccccc5c4)[C@@H](O)[C@H]3O)c3ncnc(N)c23)n1` [Compound I-114] yielded a 50% inhibitory concentration (IC50) of 100 to 1000 nM.

In turn, `Cn1ccc(-c2cn([C@@H]3O[C@H](C(=O)Nc4cccc(N5CCOCC5)c4)[C@@H](O)[C@H]3O)c3ncnc(N)c23)n1` [Compound I-74] had a half-maximal inhibitory concentration (IC50) of at least 1000 nM. On to `Cn1ccc(-c2cn([C@@H]3O[C@H](C(=O)Nc4ccc(-c5ccccc5)cn4)[C@@H](O)[C@H]3O)c3ncnc(N)c23)n1` [Compound I-79], for which the IC50 was at least 1000 nM. Take `Cn1ccc(-c2cn([C@@H]3O[C@H](C(=O)NCCC4CCCCC4)[C@@H](O)[C@H]3O)c3ncnc(N)c23)n1` [Compound I-120]: the IC50 was in the range of 100 to 1000 nM. As to `Cn1ccc(-c2cn([C@@H]3O[C@H](C(=O)Nc4ccc(Oc5ccccc5)cc4)[C@@H](O)[C@H]3O)c3ncnc(N)c23)n1` [Compound I-100], the IC50 fell in the range of 100 to 1000 nM. With `Cn1ccc(-c2cn([C@@H]3O[C@H](C(=O)Nc4nccs4)[C@@H](O)[C@H]3O)c3ncnc(N)c23)n1` [Compound I-82], the half-maximal inhibitory concentration (IC50) is at least 1000 nM. `Cn1ccc(-c2cn([C@@H]3O[C@H](C(=O)NCCC4CCOCC4)[C@@H](O)[C@H]3O)c3ncnc(N)c23)n1` [Compound I-96] returned an IC50 of 100 to 1000 nM. `CC(CNC(=O)[C@H]1O[C@@H](n2cc(-c3ccn(C)n3)c3c(N)ncnc32)[C@H](O)[C@@H]1O)c1ccccc1` (stereo partly shown) [Compound I-101]: the IC50 lay in the range of 100 to 1000 nM. As for `Cn1ccc(-c2cn([C@@H]3O[C@H](C(=O)NCCc4ccc5ccccc5c4)[C@@H](O)[C@H]3O)c3ncnc(N)c23)n1` [Compound I-134], the half-inhibitory concentration (IC50) lay in the range of 100 to 1000 nM.

These data come from patent US20240051985A1, “METTL3 MODULATORS” (ACCENT THERAPEUTICS, INC., priority 2020, published 2024).
